{
  "source": "patent US10881105B2",
  "about": "“Method for breaking dormancy in deciduous trees” (Tapazol Chemical Works Ltd., priority 2014, dated 2021)",
  "tested_on": "Black Gem (P. nigra) plums",
  "assay": "Bud break assessment after spraying, dormancy release in black gem plums (Example 1)",
  "assay_type": "in vivo",
  "details": "above 15 grams per liter oil; data not shown",
  "method": "On the day in which spraying was initiated the number of accumulated chilling units was 14 (being equivalent of 200 hours of chilling). The trees were at a stage where 10% of the bulbs were swollen. Three branches facing different directions were selected in each tree. The upper 20 cm in each branch were examined Each branch contained approximately 13 buds. Each bud was evaluated for bud progression on three separate occasions and bud progression percentages were normalized across the examined branches [table] [table]",
  "data": [
    {"smiles": "O=[N+]([O-])c1cc(C(F)(F)F)c(Cl)c([N+](=O)[O-])c1Nc1ncc(C(F)(F)F)cc1Cl", "note": "[fluazinam, 3-chloro-N-(3-chloro-5-trifluoromethyl-2-pyridyl)-α,α,α-trifluoro-2,6-dinitro-p-toluidine]", "values": [
      {"measurement": "efficacy of the composition versus concentration of Fluazinam in oil (regression)", "value": "the efficacy of the composition decreased"}
    ]}
  ]
}
